# From ChEMBL document CHEMBL3352435, “Multiple fragment docking and linking in primary and secondary pockets of dopamine receptors” (ACS Med Chem Lett, 2014)
# Tests used:
# Homo sapiens = species on record: Homo sapiens; assay: Selectivity index, ratio of Ki for human D2long receptor to Ki for human D3 receptor
# D(3) dopamine receptor = D(3) dopamine receptor (Homo sapiens, UniProt P35462); assay: Displacement of [3H]-raclopride from human D3 receptor expressed in CHO-K1 cells after 120 mins by scintillation counting analysis; format: cell-based
# D(2) dopamine receptor = D(2) dopamine receptor (Homo sapiens, UniProt P14416); assay: Displacement of [3H]-raclopride from human D2long receptor expressed in HEK293Galpha15 cells after 120 mins by scintillation counting analysis; format: cell-based
# Sequence of D(2) dopamine receptor (P14416 whole entry): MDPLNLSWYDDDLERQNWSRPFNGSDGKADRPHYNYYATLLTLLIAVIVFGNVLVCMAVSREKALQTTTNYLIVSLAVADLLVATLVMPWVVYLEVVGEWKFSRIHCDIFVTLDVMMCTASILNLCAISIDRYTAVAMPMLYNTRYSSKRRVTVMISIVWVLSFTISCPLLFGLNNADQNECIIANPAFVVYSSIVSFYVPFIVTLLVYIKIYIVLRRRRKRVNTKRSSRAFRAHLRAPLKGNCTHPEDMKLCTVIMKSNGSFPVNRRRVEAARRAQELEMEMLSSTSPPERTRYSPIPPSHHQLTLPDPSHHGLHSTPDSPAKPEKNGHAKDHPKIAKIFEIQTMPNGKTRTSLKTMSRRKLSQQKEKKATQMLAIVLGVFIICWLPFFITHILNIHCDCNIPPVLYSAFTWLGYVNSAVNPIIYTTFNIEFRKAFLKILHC
# Sequence of D(3) dopamine receptor (P35462 whole entry): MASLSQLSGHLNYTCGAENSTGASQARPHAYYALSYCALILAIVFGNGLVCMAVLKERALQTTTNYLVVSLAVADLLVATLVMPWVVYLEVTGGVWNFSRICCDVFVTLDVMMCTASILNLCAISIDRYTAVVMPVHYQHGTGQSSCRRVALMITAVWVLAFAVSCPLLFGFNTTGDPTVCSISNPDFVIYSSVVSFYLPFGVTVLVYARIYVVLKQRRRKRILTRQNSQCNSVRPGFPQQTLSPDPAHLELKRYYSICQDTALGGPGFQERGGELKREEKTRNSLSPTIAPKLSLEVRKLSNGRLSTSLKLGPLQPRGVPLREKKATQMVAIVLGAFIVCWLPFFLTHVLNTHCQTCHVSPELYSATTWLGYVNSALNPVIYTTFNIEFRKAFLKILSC
Ratio Ki (Homo sapiens),Ki (D(3) dopamine receptor) [nM],Ki (D(2) dopamine receptor) [nM],Compound
39,0.75,30,N#Cc1cc(N2CCN(CC[C@H]3CC[C@H](NC(N)=O)CC3)CC2)cc(C(F)(F)F)c1
9,0.62,5.4,N#Cc1cc(N2CCN(CC[C@H]3CC[C@H](NC(=O)CN)CC3)CC2)cc(C(F)(F)F)c1
55,0.67,37,N#Cc1cc(N2CCN(CC[C@H]3CC[C@H](NS(N)(=O)=O)CC3)CC2)cc(C(F)(F)F)c1
